Experimental data: PubChem BioAssay (NCI)
“And” between values parts separate entries of the source, which are not always exact repeats. Equal entries are not always repeated.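 Cultured in 96-well plates, cells were exposed to test compound for 48 hours across five concentrations. Abbreviation: GI50, concentration required for 50% inhibition of growth. Definition used: TGI = concentration required for complete inhibition of growth.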

Assays:
Assay in all cases: NCI-60 cell line screen, 48 h
HL-60(TB) leukemia = system: HL-60(TB) leukemia
ACHN renal = system: ACHN renal
786-0 renal = system: 786-0 renal
KM12 colon = system: KM12 colon
RXF 393 renal = system: RXF 393 renal
COLO 205 colon = system: COLO 205 colon
IGROV1 ovarian = system: IGROV1 ovarian
CCRF-CEM leukemia = system: CCRF-CEM leukemia
SK-OV-3 ovarian = system: SK-OV-3 ovarian
HOP-62 NSCLC = system: HOP-62 NSCLC

SMILES | GI50 (HL-60(TB) leukemia) | TGI (HL-60(TB) leukemia) | GI50 (ACHN renal) | TGI (ACHN renal) | GI50 (786-0 renal) | TGI (786-0 renal) | GI50 (KM12 colon) | TGI (KM12 colon) | GI50 (RXF 393 renal) | TGI (RXF 393 renal) | GI50 (COLO 205 colon) | TGI (COLO 205 colon) | GI50 (IGROV1 ovarian) | TGI (IGROV1 ovarian) | GI50 (CCRF-CEM leukemia) | TGI (CCRF-CEM leukemia) | GI50 (SK-OV-3 ovarian) | TGI (SK-OV-3 ovarian) | GI50 (HOP-62 NSCLC) | TGI (HOP-62 NSCLC)
COC(=O)c1ccc(NC(N)=NCCC(C)(C)c2ccc(C(F)(F)F)cc2)nc1 | 1.74 µM | 3.71 µM | 1.91 µM | 4.85 µM | 7.64 µM | 28.2 µM | 2.65 µM | 9.12 µM | 2.18 µM | 5.06 µM | 1.7 µM | 3.41 µM | 1.77 µM | 3.82 µM | 3.01 µM | 11 µM | 6.63 µM | 19.2 µM | 6.16 µM | 22 µM
S=C(Sc1ccc(Cl)cc1)Sc1ccc(Cl)cc1 | 1.93 µM | 8.62 µM | 3.23 µM | 11 µM | 1.94 µM | 3.6 µM | 2.74 µM | 8.64 µM | 2.04 µM | 3.87 µM | 2.29 µM | 5.5 µM | 1.81 µM | 3.47 µM | 0.409 µM | 2.56 µM | 6.05 µM | 31.8 µM | 3.39 µM | 7.58 µM
O=C(Nc1ccc(-n2cc(-c3ccncc3)c(-c3ccc(Cl)c(O)c3)n2)cc1)c1cc(C(F)(F)F)cc(C(F)(F)F)c1 | > 100 µM | > 100 µM | 6.47 µM | 31.1 µM | 3.78 µM | 13.6 µM | 4.01 µM | 16.2 µM | 1.32 µM | 3.1 µM | 3.17 µM | 14 µM | 11.5 µM | 34.5 µM | 4.87 µM | > 100 µM | 2.01 µM | 6.98 µM | 2.11 µM | 5.58 µM
CNC(=O)OCc1nc(SSc2nc(COC(=O)NC)c(COC(=O)NC)n2C)n(C)c1COC(=O)NC |  | > 100 µM |  | > 100 µM |  | > 100 µM |  | > 100 µM |  | > 100 µM |  | > 100 µM |  | > 100 µM |  | > 100 µM |  | > 100 µM |  | > 100 µM
CCN1C(=O)N(CC)C2C1NC(=S)N2/N=C/C=C/c1ccccc1 (stereo not drawn) | 0.0387 µM | 0.29 µM | 0.098 µM | > 100 µM | 0.158 µM | > 100 µM | 0.0924 µM | > 100 µM | 0.0899 µM | > 100 µM | 0.213 µM | 5.44 µM | 0.142 µM | > 100 µM | 0.128 µM | > 100 µM | 0.494 µM | > 100 µM |  | > 100 µM
Cc1nc2sccn2c1C(=O)NNC(N)=S |  | > 100 µM |  | > 100 µM |  | > 100 µM |  | > 100 µM |  | > 100 µM |  | > 100 µM |  | > 100 µM |  | > 100 µM |  | > 100 µM |  | > 100 µM
CC(C)(C)O/N=C/c1cc(NC(=S)c2ccccc2)ccc1Cl |  | 42.6 µM |  | 32.7 µM |  | 32.5 µM |  | 25.7 µM |  | 27.9 µM |  | 27.8 µM |  | 27.1 µM |  | 74.5 µM |  | > 100 µM |  | 37.1 µM
CCN(CC)CCNc1n[n+]([O-])c2cc([N+](=O)[O-])ccc2[n+]1[O-] | 0.14 µM and 0.0691 µM and 0.0173 µM | 0.381 µM and 0.278 µM and 0.0882 µM | 0.401 µM and 0.212 µM and 0.187 µM | 3.93 µM and 2.06 µM and 1.92 µM | 0.462 µM and 0.239 µM and 0.2 µM | 3.1 µM and 1.63 µM and 1.68 µM |  | 2.72 µM and 2.99 µM and 2.41 µM |  | 5.14 µM and 4.28 µM and 3.03 µM |  | 2.5 µM and 1.74 µM and 2.12 µM |  | 1.83 µM and 0.999 µM and 0.897 µM | 0.263 µM and 0.111 µM and 0.138 µM | 1.1 µM and 0.841 µM and 0.999 µM |  | 4.33 µM and 3.79 µM and 3.86 µM |  | 2.2 µM and 1.2 µM and 1.54 µM
